Measurements taken from US9492546B2, “Use of bethanechol for treatment of Xerostomia” (Acacia Pharma Limited, priority 2011, dated 2016).

Key:
[1] = system: rabbits; assay: Blood pressure and heart rate in anaesthetised rabbits (separate experiment); format: in vivo, rabbit; conditions: intravenous, dose-related at 30, 100 and 300 μg/kg
From the text: In a further, separate experiment, formulation 14C and its matching placebo were given to 3 anaesthetised rabbits in which blood pressure, via an indwelling cannula in the carotid artery, was monitored, along with heart rate.

[2] = system: healthy volunteers; assay: Phase 1 study, formulation applied topically to the oral mucosa; format: in vivo, human; conditions: oral and oromucosal
Protocol: In a Phase 1 study involving four healthy volunteers, Formulation 14C applied topically to the oral mucosa at doses up to 20 mg, kept in situ for two minutes.
This local absorption is likely to deliver enough bethanechol to the minor salivary glands, numbering in the hundreds to thousands and located immediately below the oral mucosa, to stimulate them to produce mucin-rich saliva which is disproportionately important for ensuring a comfortable month feel. When added to the salivary stimulation achieved by oral ingestion of bethanechol, it may reasonably be concluded that the formulation can produce better relief from xerostomia, with fewer side-effects, than purely systemic dosing of bethanechol.

[3] = system: New Zealand White rabbits; assay: Heart rate in anaesthetised rabbits, topical formulations versus IV bethanechol; format: in vivo, rabbit; conditions: range of doses
From the text: More specifically, adult male New Zealand White rabbits, of approximate body weight 2.0 to 3 kg, were allocated in groups of three to be treated with formulations of bethanechol given in Table 1, designated 2, 6, 9 and 14C, along with each of their matching placebos. Animals were anaesthetised with urethane, administered IP, and heart rate was monitored via ECG leads. They were placed in the prone position after being anaesthetised (this inhibits the drug from entering the GI tract). Salivation was measured by inserting pre-weighed cotton wool balls into the oral cavity, removing after five or ten minutes and weighing. The difference in weight provided an estimate of salivary flow.
At the end of the experiment, one animal from each group was given bethanechol intravenously at a range of doses, in order to produce a dose-response curve for heart rate. This was compared to the effect of the active formulations, when given topically, on heart rate.

[4] = cited from earlier work
[5] = cited from earlier work; remark: listed apart in the source
[6] = system: patients with xerostomia; conditions: administered orally, small number of clinical studies; cited from earlier work

Pharmacokinetics (linearity) [2]: linear
Compound: CC(C[N+](C)(C)C)OC(N)=O (centres unmarked) [bethanechol chloride, Bethanechol chloride]
Effect on blood pressure [1]: reduced
Effect on heart rate [1]: reduced
Effect on heart rate [3]: marked and dose-dependent bradycardia
aqueous solubility [4]: high
Penetration into the CNS ([5]; at therapeutic doses): does not significantly penetrate into the CNS
Absorption from the GI tract ([5]; in vivo): only poorly absorbed
Salivary flow [6]: increase salivary flow
